Measured values taken from patent publication US9249128B2 (priority 2010, dated 2016).
Where two headings read alike, the source gives them in different places.

Assays:
[1] = biological target: T1, KIAA1363 (Mus musculus, UniProt Q8BLF1); assay: Gel-based competitive ABPP of KIAA1363 in mouse brain membrane proteome (FP-rhodamine); format: biochemical
T1 construct: ABPP analysis of KIAA1363 activity in mouse brain membrane proteome; from tissue; host or cells: mouse brain (membrane fraction)
T1 sequence (Q8BLF1 1-408): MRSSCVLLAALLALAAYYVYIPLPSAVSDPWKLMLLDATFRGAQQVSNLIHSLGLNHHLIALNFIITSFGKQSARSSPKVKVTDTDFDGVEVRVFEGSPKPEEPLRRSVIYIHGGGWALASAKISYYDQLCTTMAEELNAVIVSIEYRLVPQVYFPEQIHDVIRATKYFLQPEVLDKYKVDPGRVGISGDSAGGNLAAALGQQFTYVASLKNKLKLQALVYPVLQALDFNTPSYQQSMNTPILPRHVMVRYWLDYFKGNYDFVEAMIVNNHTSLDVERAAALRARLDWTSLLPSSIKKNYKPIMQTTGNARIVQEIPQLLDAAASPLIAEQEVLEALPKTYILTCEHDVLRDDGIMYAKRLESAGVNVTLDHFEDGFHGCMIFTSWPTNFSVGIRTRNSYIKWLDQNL
Procedure: In various embodiments, the invention provides a method of inhibiting a serine hydrolase, comprising contacting the hydrolase with a compound of formula (I), e.g., a compound selected from set of compounds shown in Table 1, below. […] IC50 values were derived from ABPP analysis of KIAA1363 activity in mouse brain membrane proteome and are averages of three replicates. Inhibitors were added to the proteome for 30 min before addition of FP-rhodamine (1 μM, 30 min).
Tissues were Dounce-homogenized in PBS, pH 7.4, followed by a low-speed spin (1,400 g, 5 min) to remove debris. The supernatant was then subjected to centrifugation (100,000×g, 45 min) to provide the cytosolic fraction in the supernatant and the unsoluble fraction as a pellet. The pellet was washed and resuspended in PBS buffer by sonication. Total protein concentration in each fraction was determined using a protein assay kit (Bio-Rad). Samples were stored at −80° C. until use.
(§1) For ABPP experiments, cell lysate and tissue proteomes were treated with 1 μM FP-rhodamine for 30 min at room temperature (50 μL total reaction volume) as described previously (Nomura et al., 2010). Reactions were quenched with one volume of standard 4×SDS/PAGE loading buffer (reducing), separated by SDS/PAGE (10% acrylamide), and visualized in-gel with a Hitachi FMBio IIe flatbed fluorescence scanner (MiraiBio). Inhibitors were preincubated prior (30 min or 4 h at 37° C. in vitro or in situ, respectively) to the addition of FP-rhodamine.

[2] = biological target: T2, AChE (Mus musculus, UniProt P21836); assay: AChE activity assay with acetylthiocholine in mouse brain proteome; format: biochemical; conditions: acetylthiocholine hydrolysis in mouse brain membrane proteome
T2 construct: 20 μg of cell lysate or mouse brain membrane proteome; from tissue; host or cells: mouse brain (membrane proteome)
T2 sequence (P21836 32-614): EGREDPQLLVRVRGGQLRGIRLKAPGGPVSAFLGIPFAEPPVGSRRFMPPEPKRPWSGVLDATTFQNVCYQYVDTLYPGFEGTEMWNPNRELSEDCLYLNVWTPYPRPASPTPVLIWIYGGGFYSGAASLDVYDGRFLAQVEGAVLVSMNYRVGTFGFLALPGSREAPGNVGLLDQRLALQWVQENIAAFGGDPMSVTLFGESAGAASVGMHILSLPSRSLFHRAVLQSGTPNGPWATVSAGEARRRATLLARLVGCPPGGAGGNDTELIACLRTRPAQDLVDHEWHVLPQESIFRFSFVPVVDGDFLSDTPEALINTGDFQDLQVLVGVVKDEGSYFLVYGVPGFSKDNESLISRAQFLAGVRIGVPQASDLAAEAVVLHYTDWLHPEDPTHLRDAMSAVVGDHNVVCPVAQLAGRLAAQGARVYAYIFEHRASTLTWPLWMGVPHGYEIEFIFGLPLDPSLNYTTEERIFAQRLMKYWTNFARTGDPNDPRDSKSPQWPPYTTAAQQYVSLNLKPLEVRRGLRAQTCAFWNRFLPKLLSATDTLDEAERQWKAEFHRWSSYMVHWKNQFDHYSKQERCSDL
Procedure: AChE activity was measured using a method similar to that described previously (Ellman et al., 1961). Briefly, 50 μL of 10 mM acetylthiocholine was added to 200 μL of PBS containing 2 mM DTNB and 20 μg of cell lysate or mouse brain membrane proteome. Absorbance was measured at 412 nm over 5 min, and the rate of product accumulation was calculated from the slope of the absorbance over time. For assays involving preincubation with inhibitors, the reactions were prepared without acetylthiocholine and JW480 was incubated at the indicated concentration for 30 min at 37° C. Acetylthiocholine was then added and the assay was carried out exactly as described above.

[3] = biological target: T3, HSL (Mus musculus, UniProt P54310); assay: Competitive ABPP of HSL in rosiglitazone-differentiated 3T3-10T1/2 adipocyte proteome; format: biochemical
T3 construct: ABPP analysis of HSL from a rosiglitazone-differentiated 3T3-10T1/2 adipocyte proteome; endogenous in cells; host or cells: rosiglitazone-differentiated 3T3-10T1/2 adipocytes
T3 sequence (P54310 1-759): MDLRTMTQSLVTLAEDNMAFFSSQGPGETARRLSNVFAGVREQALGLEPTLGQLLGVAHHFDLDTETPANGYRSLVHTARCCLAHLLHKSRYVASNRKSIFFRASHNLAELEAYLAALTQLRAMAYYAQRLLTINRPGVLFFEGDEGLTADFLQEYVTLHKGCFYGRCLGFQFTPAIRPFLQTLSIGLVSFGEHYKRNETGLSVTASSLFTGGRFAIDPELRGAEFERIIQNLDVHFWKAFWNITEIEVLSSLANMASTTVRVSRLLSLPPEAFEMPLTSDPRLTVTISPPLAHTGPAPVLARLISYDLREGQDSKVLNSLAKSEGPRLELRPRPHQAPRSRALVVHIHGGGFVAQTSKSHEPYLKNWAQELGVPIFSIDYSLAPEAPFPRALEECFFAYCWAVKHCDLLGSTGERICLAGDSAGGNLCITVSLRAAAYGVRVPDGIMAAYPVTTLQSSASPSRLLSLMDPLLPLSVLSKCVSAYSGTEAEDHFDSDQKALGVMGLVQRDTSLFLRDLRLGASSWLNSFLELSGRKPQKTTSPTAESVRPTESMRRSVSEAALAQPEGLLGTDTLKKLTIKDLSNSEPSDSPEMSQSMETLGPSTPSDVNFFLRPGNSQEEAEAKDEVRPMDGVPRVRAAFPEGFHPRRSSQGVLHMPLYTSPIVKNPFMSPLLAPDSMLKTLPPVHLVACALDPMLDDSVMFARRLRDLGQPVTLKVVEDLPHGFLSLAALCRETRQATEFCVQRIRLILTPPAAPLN
Procedure: as §1

[4] = biological target: T4, KIAA1363 (Homo sapiens, UniProt Q6PIU2); assay: Inhibition of FP-rhodamine labeling of KIAA1363 by JW551 (FIG. 17); format: biochemical; conditions: selective over other serine hydrolase enzymes
T4 sequence (Q6PIU2 1-408): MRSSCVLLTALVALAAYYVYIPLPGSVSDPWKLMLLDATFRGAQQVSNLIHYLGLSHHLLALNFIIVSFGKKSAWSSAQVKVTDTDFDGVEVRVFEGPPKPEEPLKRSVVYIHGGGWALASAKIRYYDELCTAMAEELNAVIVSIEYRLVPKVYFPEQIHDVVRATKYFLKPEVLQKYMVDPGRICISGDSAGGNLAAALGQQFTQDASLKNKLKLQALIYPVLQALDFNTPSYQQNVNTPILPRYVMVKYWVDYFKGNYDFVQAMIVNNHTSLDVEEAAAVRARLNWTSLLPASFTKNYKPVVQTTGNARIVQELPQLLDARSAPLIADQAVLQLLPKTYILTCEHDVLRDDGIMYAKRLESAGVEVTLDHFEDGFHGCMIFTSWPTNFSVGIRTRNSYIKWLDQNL

[5] = biological target: T1, KIAA1363; assay: In vivo labeling of KIAA1363 by JW576 in mouse heart (gel-based ABPP)
Procedure: (§2) For ABPP experiments, cell lysate and tissue proteomes were treated with 1 μM FP-rhodamine for 30 min at room temperature ([…]). Reactions were quenched with one volume of standard 4×SDS/PAGE loading buffer (reducing), separated by SDS/PAGE (10% acrylamide), and visualized in-gel with a Hitachi FMBio IIe flatbed fluorescence scanner (MiraiBio). For experiments involving a preincubation with JW576 in the presence or absence of the non-fluorescent competitor JW480, the reactions were prepared without FP-rhodamine. JW576 were added at the indicated concentration and incubated for the indicated time at 37° C. FP-rhodamine was then added and the reaction was carried out exactly as described above.
Tissues were dounce-homogenized in PBS, pH 7.5, followed by a low-speed spin (1,400 g, 5 min) to remove debris. The supernatant was then subjected to centrifugation (64,000 g, 45 min) to provide the cytosolic fraction in the supernatant and the membrane fraction as a pellet. The pellet was washed and resuspended in PBS buffer by sonication. Total protein concentration in each fraction was determined using a protein assay kit (Bio-Rad). Samples were stored at −80° C. until use.
JW576 was prepared as a homogenoeus PEG solution by vortexing, sonicating, and gently heating neat compound directly into PEG300 (Fluka) (4 mg ml^−1 final concentration. Male C57BI/6J (<6 months old, 20-28 g) and Male KIAA1363-KO mice were treated with JW576 or a PEG vehicle by intraperitoneal injection. After the indicated amount of time, mice were anesthetized with isoflurane and killed by decapitation. Tissues were removed, flash frozen in liquid N2 and stored at −80° C. prior to processing for ABPP gel analysis as indicated above. Animal experiments were conducted in accordance with the guidelines of the institutional Animal Care and Use Committee of The Scripps Research Institute.

[6] = biological target: T4, KIAA1363; assay: Gel-based competitive ABPP of living PC3 cells, in situ treatment; format: cell-based; design: PC3 cancer cells, which have high endogenous KIAA1363 levels; endogenous in cells; host or cells: PC3
Procedure: Inhibitors were dissolved in DMSO and diluted into media or buffer prior to cell or proteome treatment, respectively. For in vitro treatment, final DMSO concentration was 4%. For in situ treatments of cells for ABPP, lipid measurements, migration, cell-survival, and invasion assays, 2×10^6 cells were seeded in 6 cm dishes (˜100% confluency) 24 h prior to inhibitor pre-treatment (in DMSO at 0.1% final concentration) in serum-free media (3 mL) for the designated time before harvesting cells for ABPP or lipid measurements or before the initiation of migration, cell-survival, and invasion assays.
as §1
JW576 was dissolved in DMSO and diluted into media or buffer prior to cell or proteome treatment, respectively. For in vitro treatment, final DMSO concentration was 4%. For in situ treatments of cells for ABPP, 2×10^6 cells were seeded in 6 cm dishes (100% confluency) 24 hr prior to JW576 pretreatment with or without JW480 (in DMSO at 0.1% final concentration) in serum-free media (3 ml) for the designated time before harvesting cells for ABPP.
as §2

[7] = biological target: T4, KIAA1363; assay: 2-acetyl MAGE hydrolytic activity assay in cancer cells treated in situ; format: cell-based; design: PC3 cancer cells, which have high endogenous KIAA1363 levels; endogenous in cells; host or cells: PC3 (2-acetyl MAGE assay also DU145 and SKOV3)
Procedure: Cells were pretreated with KIAA1363 inhibitors in situ (for 4 hr in serum-free F-12K media before harvesting cells by scraping) or in vitro (for 30 min at 37° C. in PBS) before addition of 2-acetyl MAGE (100 μM) to cell lysates at room temperature for 30 min in a volume of 200 μL. Reactions were quenched with 600 μL 2:1 chloroform:methanol and 10 nmol of C12:0 MAGE internal standard was added. The organic layer was extracted and 30 μL injected into an Agilent 1100-MSD LC-MS. LC-MS settings were as previously described (Chiang et al., 2006). Product levels (C16:0 MAGE) were quantified in relation to the internal standard. Specific activity was determined during the linear phase of enzymatic reactions (i.e., less than 20% substrate utilized).
Cell lysates (20 μg) in Tris buffer were then incubated with lipid (100 mM, e.g., 2-acetyl MAGE for KIAA1363 activity) at room temperature for 30 min in a volume of 200 ml. Reactions were quenched with 600 ml 2:1 chloroform:methanol and 10 nmol of C12:0 MAGE internal standard was added. […] Product levels (C16:0 MAGE for KIAA1363 activity) were quantified in relation to internal standard levels and standard curves generated between varying lipid concentration versus constant internal standard levels. Specific activity was determined during the linear phase of enzymatic reactions (i.e., less than 20% substrate utilized)

Cc1ccc2ccccc2c1OC(=O)NCCc1ccc2ccccc2c1 [JW440, 2-methylnaphthalen-1-yl (2-(naphthalen-2-yl)ethyl)carbamate]
IC50 ([1]; mouse brain membrane proteome, inhibitor 30 min before FP-rhodamine (1 μM, 30 min), averages of three replicates, read-out: IC50 (KIAA1363)): 437 nM
IC50 ([1]; screened against KIAA1363, Table 1, read-out: IC50 values of less than 1 micromolar): < 1000 nM
Cross-reactivity with AChE [2]: little or no activity
Cross-reactivity with HSL [3]: little or no activity

CC(C)c1ccccc1OC(=O)NCCOc1ccc2c(C(F)(F)F)cc(=O)oc2c1 [JW551, 2-isopropylphenyl (2-((2-oxo-4-(trifluoromethyl)-2H-chromen-7-yl)oxy)ethyl)carbamate]
IC50 for inhibition of FP-rhodamine labeling of KIAA1363 [4]: low micromolar

CC1=CC(C)=[N+]2C1=Cc1ccc(CCC(=O)NCCNC(=O)Oc3ccccc3C(C)C)n1[B-]2(F)F [JW576, 5,5-difluoro-7-(3-((2-(((2-isopropylphenoxy)carbonyl)amino)ethyl)amino)-3-oxopropyl)-1,3-dimethyl-5H-dipyrrolo[1,2-c:2′,1′-f][1,3,2]diazaborinin-4-ium-5-uide]
Labeling of KIAA1363 in heart ([5]; C57BI/6J mice, 5-40 mg/kg, i.p., 4 hr): significant labeling
Time to near-maximal in vivo labeling signals ([5]; JW576 10 mg/kg, post-dosing): ≤ 30 min
KIAA1363 activity in heart by competitive ABPP with FP-Rh ([5]; WT mice, JW576 10 mg/kg, 1 hr): substantial reductions
Selectivity for KIAA1363 in vivo (heart proteome) ([5]; additional 70 kDa protein, likely ES1): only a single, faint additional probe target
IC50 [6]: 340 ± 150 nM
Time to near-complete target modification ([6]; JW576 1 μM, living PC3 cells): within an hour
Concentration at which other JW576-protein adducts were observed (trace levels) ([6]; PC3 cells in situ, BODIPY fluorescence scan): ≥ 5 µM
IC50 [7]: 150 to 170 nM
